Source: paper PMC7037610, “Novel Cationic Prodrug of Ubiquinol-10 Enhances Intestinal Absorption via Efficient Formation of Nanosized Mixed-Micelles with Bile Acid Anions” (Molecules, 2020)
Values joined by “and” are separate entries in the source; they are usually repeats but may differ in a detail not shown here. Equal values may be shown once. Where a name gives a salt, the structure may show the parent alone. Marks after values point to notes of the source that are not given here. Values belong to the molecule of their own block, whether it stands above or below them.

What was measured:
[1] = design: method as in Japanese Pharmacopoeia monograph; settings: ref Japanese Pharmacopoeia monograph, cited from earlier work
Water solubility = format: physicochemical; settings: in water
Procedure: The aqueous solubility of each ester was determined by adding 20 μmol of each compound to 1 mL distilled water in amber test tubes and incubating the tubes at 25 ± 1 °C in a constant-temperature water bath. The test tubes were shaken for 24 h and the suspensions were centrifuged at 1250× g for 10 min. The supernatants were diluted 10-fold with distilled water and assayed by the HPLC method described in Section 3.9.1.
(§1) The Shimadzu HPLC system (Shimadzu, Kyoto, Japan) consisted of a pump (LC-10AD), an autoinjector (SIL-10ADvp), a UV detector (SPD-10Avp), and a column oven (CTO-10Avp). The eluent was monitored spectrophotometrically at 280 nm. Compounds were analyzed on a YMC-Pack C8 reversed-phase column (φ 4.6 × 250 mm, YMC Co., Ltd., Kyoto, Japan) protected by a µBondapak C18 Guard-Pak (Waters Co., Milford, MA, USA) with a degassed mobile phase of methanol and 2-propanol (850/150, v/v) at 0.8 mL/min. UqH-10 and Uq-10 were quantified using linear calibration curves of peak areas versus concentrations. UqH-10 was partly oxidized during the preparation procedure. Therefore, the sum of UqH-10 and Uq-10 represented total UqH-10. Retention times were: UqH-10, 11.6 min; UqH-ester derivatives, 13.2 min and Uq-10, 15.4 min.

[2] = Enzymatic hydrolysis of UqH-derivatives in rat liver microsomes; format: in vitro ADME; settings: for Km / Vmax: pH 7.4, 37 °C
Procedure: (§2) The hydrolysis of esters was analyzed at 37 °C in phosphate buffered saline (PBS) containing commercially available rat or human liver microsomes (In Vitro Technologies, Inc., Baltimore, MD, USA). The microsomes (20 mg/mL) were adjusted to a protein concentration of 2 mg/mL and were preincubated at 37 °C for 5 min before adding the esters.
Stock solutions of esters were prepared in ethanol. The enzymatic reactions were initiated by adding 10 µL ester stock solution (final concentration 0.1–0.4 mM) and 50 μL PBS to 940 µL of preheated reaction medium containing rat or human liver microsomes in amber test tubes. These reactions were incubated at 37 °C and, at various times, 100 μL aliquots were removed and mixed with 100 µL 10% trichloroacetic acid. Samples were then vortex mixed for 2 min and 800 µL ethyl acetate was added, with vortex mixing for 5 min. The samples were centrifuged at 1250× g for 10 min. The 20 µL organic layer was analyzed by the HPLC system described in Section 3.9.1. The initial hydrolytic rate (mM UqH-10 formed per min) was calculated from the initial slope of a plot of UqH-10 concentration versus time.
as §1

[3] = Mixed-micellization with taurocholic acid (appearance of mixtures); format: physicochemical
Procedure: (§3) A solution of 20 mM UqH-DMG was prepared in distilled water and incubated at 36.5 °C until the solution was translucent. The solution was combined with 10 mM TCA aqueous solution in the final molar ratios of 1:0.5–10 UqH-DMG:TCA.

[4] = Enzymatic hydrolysis of UqH-derivatives in human liver microsomes; format: in vitro ADME; settings: pH 7.4, 37 °C, Michaelis–Menten fit
Procedure: as §2
Stock solutions of esters were prepared in ethanol. The enzymatic reactions were initiated by adding 10 µL ester stock solution (final concentration 0.1–0.4 mM) and 50 μL PBS to 940 µL of preheated reaction medium containing rat or human liver microsomes in amber test tubes. […] The 20 µL organic layer was analyzed by the HPLC system described in Section 3.9.1. The initial hydrolytic rate (mM UqH-10 formed per min) was calculated from the initial slope of a plot of UqH-10 concentration versus time.
The Shimadzu HPLC system (Shimadzu, Kyoto, Japan) consisted of a pump (LC-10AD), an autoinjector (SIL-10ADvp), a UV detector (SPD-10Avp), and a column oven (CTO-10Avp). The eluent was monitored spectrophotometrically at 280 nm. Compounds were analyzed on a YMC-Pack C8 reversed-phase column (φ 4.6 × 250 mm, YMC Co., Ltd., Kyoto, Japan) protected by a µBondapak C18 Guard-Pak (Waters Co., Milford, MA, USA) with a degassed mobile phase of methanol and 2-propanol (850/150, v/v) at 0.8 mL/min. […]

[5] = Micellization of UqH-DMG in water (visual inspection, solubilizing point vs temperature); format: physicochemical; settings: for Appearance of solution: 45 mM in water
Procedure: UqH-DMG was diluted to intended concentrations with milliQ water in glass tubes. The test tubes were incubated in a water bath equipped with a thermometer. The solution appearance was visually inspected and the solubilizing points were plotted on a concentration versus incubation temperature curve.

[6] = Particle size by dynamic light scattering (Zetasizer Nano ZS); format: physicochemical; settings: mean ± SD
Procedure: as §3
The Z-average of diameters of the particles of aqueous solution of UqH-DMG prepared in a polystyrene cuvette in Section 3.7.1. above were determined by a Zetasizer Nano ZS (MALVERN, Worcestershire, UK). The measurements were performed three independent times for each sample.

[7] = system: esterases in rat liver microsomes; experiment: Effect of eserine on UqH-4-DMG hydrolysis in rat liver microsomes; format: biochemical; settings: eserine 0–2.0 mM
Procedure: (§4) Effects of eserine on UqH-4-DMG hydrolysis in liver microsomes was also examined, using similar methods, with 50 µL eserine aqueous solution added, instead of PBS, to the mixtures with liver microsomes. Eserine was tested at 0–2.0 mM.

[8] = system: esterases in human liver microsomes; experiment: Effect of eserine on UqH-4-DMG hydrolysis in human liver microsomes; format: biochemical; settings: eserine 0–2.0 mM
Procedure: as §4

[9] = calculated using generated UqH-10 levels after sequential hydrolysis

Compound: COC1=C(OC)C(=O)C(C/C=C(\C)CC/C=C(\C)CC/C=C(\C)CC/C=C(\C)CC/C=C(\C)CC/C=C(\C)CC/C=C(\C)CC/C=C(\C)CC/C=C(\C)CCC=C(C)C)=C(C)C1=O [Uq-10, Ubiquinone-10]
- Water solubility ([1]; even when diluted to this concentration): < 116 µM
- Water solubility descriptor [1]: practically insoluble, or insoluble

Compound: COc1c(O)c(C)c(C/C=C(\C)CC/C=C(\C)CC/C=C(\C)CC/C=C(\C)CC/C=C(\C)CC/C=C(\C)CC/C=C(\C)CC/C=C(\C)CC/C=C(\C)CCC=C(C)C)c(OC(=O)CN(C)C)c1OC [UqH-1-DMG]
- Water solubility compared with UqH bis-ester (UqH-DMG) (Water solubility): lower
- Km ([2]; Michaelis–Menten fit): 4630 µM
- Vmax ([2]; Michaelis–Menten fit): 8.21e-07 M/min

Compound: CNC(=O)Oc1ccc2c(c1)[C@]1(C)CCN(C)[C@@H]1N2C [eserine, physostigmine sulfate]
- Effect on UqH-4-DMG hydrolysis [7]: inhibited
- Effect on UqH-4-DMG hydrolysis [8]: inhibited

More lines, main results first:

- melting point: 179 to 181 °C
Compound: COc1c(OC(=O)CN(C)C)c(C)c(C/C=C(\C)CC/C=C(\C)CC/C=C(\C)CC/C=C(\C)CC/C=C(\C)CC/C=C(\C)CC/C=C(\C)CC/C=C(\C)CC/C=C(\C)CCC=C(C)C)c(OC(=O)CN(C)C)c1OC (as salt: hydrochloride) [UqH-DMG, 2,3-dimethoxy-5-methyl-6-decaprenyl-benzene-1,4-bis-N,N–dimethyl glycinate]

- Water solubility compared with UqH bis-ester (UqH-DMG) (Water solubility): lower
- Vmax/Km relative to UqH-1-DMG [2]: 8.9 fold
- Km ([2]; Michaelis–Menten fit): 75.1 µM
- Solubilization with taurocholic acid ([3]; 10-times molar-equivalents taurocholic acid): solubilized
- Km [4]: 72.2 µM
Compound: COc1c(O)c(C/C=C(\C)CC/C=C(\C)CC/C=C(\C)CC/C=C(\C)CC/C=C(\C)CC/C=C(\C)CC/C=C(\C)CC/C=C(\C)CC/C=C(\C)CCC=C(C)C)c(C)c(OC(=O)CN(C)C)c1OC [UqH-4-DMG]
- Vmax ([2]; Michaelis–Menten fit): 1.19e-07 M/min
- Vmax [4]: 1.23e-07 M/min

- solubility at 24 h (Water solubility; distilled water, read-out: Water solubility (transparent solution in water at concentrations up to)): ≤ 5000 µM
- Km [2, 9]: 3890 µM
- Appearance of solution ([5]; 27.0 °C): opaque
- Appearance of solution ([5]; 36.5 °C): transparent
- Krafft's point ([5]; in water): around 36.5 °C
- Appearance of mixture with taurocholic acid ([3]; UqH-DMG:TCA molar ratio 1:0.5): slightly cloudy
- Appearance of mixture with taurocholic acid ([3]; UqH-DMG:TCA molar ratios 1:1 to 1:10): transparent
- Z-average particle diameter ([6]; 20 mM in water, without TCA, prepared at 36.5 °C): 20.38 ± 0.14 nm and 20 nm
- Z-average particle diameter ([6]; UqH-DMG:TCA mixture at 1:1 molar ratio): 5.183 ± 0.033 nm and 5 nm
Compound: COc1c(OC(=O)CN(C)C)c(C)c(C/C=C(\C)CC/C=C(\C)CC/C=C(\C)CC/C=C(\C)CC/C=C(\C)CC/C=C(\C)CC/C=C(\C)CC/C=C(\C)CC/C=C(\C)CCC=C(C)C)c(OC(=O)CN(C)C)c1OC [UqH-DMG, 2,3-dimethoxy-5-methyl-6-decaprenyl-benzene-1,4-bis-N,N–dimethyl glycinate]
- Vmax [2, 9]: 0.603 ^a ×10^−6 M·min^−1
